Reference: ChEMBL document CHEMBL3804754, “Optimization of Novel Aza-benzimidazolone mGluR2 PAMs with Respect to LLE and PK Properties and Mitigation of CYP TDI” (ACS Med Chem Lett, 2016)
pEC50, pKi: −log10 of the molar value. In brackets after ≈: the same amount, converted by molar mass. One block for each compound: values may come before it. Activity calls are given as the source filed them. The rule behind the calls is not given here.

How the values were obtained:
[1] = target: T1, Metabotropic glutamate receptor 2 (Homo sapiens, UniProt Q14416); test: Positive allosteric modulation of recombinant human mGlu2 receptor expressed in CHO cells assessed as potentiation of glutamate-induced effect preincubated for 5 mins followed by glutamate stimulation for 3 mins by Fluo-4AM staining-based FLIPR assay; format: cell-based
CYP3A4 [2] = target: T2, CYP3A4 (Homo sapiens, UniProt P08684); test: Inhibition of CYP3A4 in human liver microsomes at 10 uM; format: ADME
[3] = Solubility of compound at pH 7; format: physicochemical; settings: buffer
[4] = (§1) AUC in Wistar Hannover rat at 10 mg/kg, po administered as single dose; format: ADME, organism-based; settings: Wistar Hannover, in vivo
[5] = Half life in Wistar Hannover rat at 2 mg/kg, iv administered as single dose; format: ADME, organism-based; settings: in vivo
[6] = Clearance in Wistar Hannover rat at 2 mg/kg, iv administered as single dose; format: ADME, organism-based; settings: in vivo
Rattus norvegicus [7] = test: Fraction unbound adjusted clearance in Wistar Hannover rat at 2 mg/kg, iv administered as single dose; format: ADME, organism-based; settings: in vivo
[8] = (§2) Oral bioavailability in Wistar Hannover rat at 10 mg/kg administered as single dose; format: ADME, organism-based; settings: Wistar Hannover, in vivo
[9] = target: Metabotropic glutamate receptor 3 (Homo sapiens, UniProt Q14832); test: Positive allosteric modulation of mGlu3 receptor (unknown origin)
[10] = target: Metabotropic glutamate receptor 4 (Homo sapiens, UniProt Q14833); test: Positive allosteric modulation of mGlu4 receptor (unknown origin)
[11] = target: Metabotropic glutamate receptor 5 (Homo sapiens, UniProt P41594); test: Positive allosteric modulation of mGlu5 receptor (unknown origin)
[12] = target: Metabotropic glutamate receptor 6 (Homo sapiens, UniProt O15303); test: Positive allosteric modulation of mGlu6 receptor (unknown origin)
[13] = Fraction unbound in Beagle dog plasma at 0.5 mg/kg, iv administered as single dose; format: ADME, organism-based, Canis lupus familiaris
[14] = Half life in Beagle dog at 0.5 mg/kg, iv administered as single dose; format: ADME, organism-based, Canis lupus familiaris; settings: in vivo
Canis familiaris = test: Fraction unbound adjusted clearance in Beagle dog at 0.5 mg/kg, iv administered as single dose; format: ADME, organism-based, Canis lupus familiaris; settings: in vivo
Rattus norvegicus [15] = test: Antipsychotic activity in Sprague-Dawley rat assessed as inhibition of MK-801-induced hyperlocomotive activity at 30 mg/kg, treated for 30 mins followed by MK-801 challenge measured over 90 mins relative to vehicle control; format: functional, organism-based
Cerebrospinal fluid = test: Drug uptake in Sprague-Dawley rat cerebrospinal fluid at 30 mg/kg, po; format: ADME, organism-based; settings: in vivo, read-out: Drug uptake
Salmonella typhimurium [16] = test: Mutagenicity in Salmonella typhimurium by Ames test in presence of S9 liver fraction; format: toxicity, organism-based; settings: salmonella enterica subsp. enterica serovar typhimurium
Salmonella typhimurium [17] = test: Mutagenicity in Salmonella typhimurium by Ames test in absence of S9 liver fraction; format: toxicity, organism-based; settings: salmonella enterica subsp. enterica serovar typhimurium
[18] = Fraction unbound in Wistar Hannover rat plasma at 2 mg/kg, iv administered as single dose; format: ADME, organism-based
[19] = target: D(2) dopamine receptor (Homo sapiens) (UniProt P14416); test: Activity at dopamine D2 receptor (unknown origin)
[20] = target: 5-hydroxytryptamine receptor 2A (Homo sapiens) (UniProt P28223); test: Activity at 5HT2A receptor (unknown origin)
Homo sapiens = organism: Homo sapiens; test: Activity at PDE10 (unknown origin)
[21] = Substrate activity at human P-gp assessed as apparent permeability; format: ADME
P-gp [22] = test: Substrate activity at rat P-gp assessed as efflux ratio of apparent permeability from basolateral to apical side to apical to basolateral side; format: ADME; settings: not told
P-gp [23] = test: Substrate activity at rat P-gp assessed as apparent permeability; format: ADME; settings: not told
[24] = target: T1, Metabotropic glutamate receptor 2; test: Agonist activity at recombinant human mGlu2 receptor expressed in CHO cells assessed as potentiation of glutamate-induced effect preincubated for 5 mins followed by glutamate stimulation for 3 mins by Fluo-4AM staining-based FLIPR assay; format: cell-based
[25] = target: T1, Metabotropic glutamate receptor 2; test: Positive allosteric modulation of recombinant human mGlu2 receptor expressed in CHO cells assessed as decrease in glutamate EC50 at 1 uM preincubated for 5 mins followed by glutamate stimulation for 3 mins by Fluo-4AM staining-based FLIPR assay relative to control; format: cell-based
Target sequence in this assay (Q14416 19-872 limits assumed): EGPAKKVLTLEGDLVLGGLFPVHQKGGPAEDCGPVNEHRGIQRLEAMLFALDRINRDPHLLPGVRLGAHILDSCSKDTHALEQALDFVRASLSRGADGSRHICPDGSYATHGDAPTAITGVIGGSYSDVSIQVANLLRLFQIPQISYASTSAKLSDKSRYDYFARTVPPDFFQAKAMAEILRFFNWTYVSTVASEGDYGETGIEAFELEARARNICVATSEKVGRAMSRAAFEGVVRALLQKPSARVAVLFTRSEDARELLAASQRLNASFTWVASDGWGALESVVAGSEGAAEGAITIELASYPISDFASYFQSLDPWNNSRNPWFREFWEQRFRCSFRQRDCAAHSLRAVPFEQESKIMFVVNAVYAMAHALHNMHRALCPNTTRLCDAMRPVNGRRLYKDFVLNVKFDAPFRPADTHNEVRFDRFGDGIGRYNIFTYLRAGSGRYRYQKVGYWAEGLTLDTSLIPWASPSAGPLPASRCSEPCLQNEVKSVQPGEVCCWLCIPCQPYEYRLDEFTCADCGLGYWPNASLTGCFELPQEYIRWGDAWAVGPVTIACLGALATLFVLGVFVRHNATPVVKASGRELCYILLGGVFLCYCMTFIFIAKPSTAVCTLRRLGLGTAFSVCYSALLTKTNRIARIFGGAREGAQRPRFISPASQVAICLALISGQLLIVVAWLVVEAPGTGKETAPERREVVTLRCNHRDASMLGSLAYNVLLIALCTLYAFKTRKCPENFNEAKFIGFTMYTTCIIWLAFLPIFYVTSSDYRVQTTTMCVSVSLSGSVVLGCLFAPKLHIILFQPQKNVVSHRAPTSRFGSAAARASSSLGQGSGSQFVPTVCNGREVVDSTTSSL

[26] = Clearance in Beagle dog at 0.5 mg/kg, iv administered as single dose; format: ADME, organism-based, Canis lupus familiaris; settings: in vivo
[27] = AUC in Beagle dog at 1 mg/kg, po administered as single dose; format: ADME, organism-based, Canis lupus familiaris; settings: in vivo
[28] = Oral bioavailability in Beagle dog at 1 mg/kg administered as single dose; format: ADME, organism-based, Canis lupus familiaris; settings: in vivo
[29] = Intrinsic clearance in dog liver microsomes at 10 uM incubated for 20 to 60 mins by LC-HRMS analysis in presence of NADPH/GSH; format: ADME, Canis lupus familiaris; settings: read-out: CLH
Rattus norvegicus [30] = test: Antipsychotic activity in Sprague-Dawley rat assessed as inhibition of MK-801-induced hyperlocomotive activity at 10 mg/kg, treated for 30 mins followed by MK-801 challenge measured over 90 mins relative to vehicle control; format: functional, organism-based
Plasma = test: Plasma concentration in Sprague-Dawley rat at 10 mg/kg, po; format: ADME, organism-based; settings: in vivo
CYP3A4 [31] = target: T2, CYP3A4; test: (§3) Time dependent inhibition of CYP3A4 in human liver microsomes; format: ADME; settings: human, liver microsomes
Cytochrome P450 3A4 = Cytochrome P450 3A4 (Homo sapiens, UniProt P08684); test: as §3; format: ADME
[32] = target: Metabotropic glutamate receptor 2 (Rattus norvegicus, UniProt P31421); test: Positive allosteric modulation of rat mGlu2 receptor assessed as potentiation of glutamate-induced effect by Fluo-4AM staining-based FLIPR assay
Rattus norvegicus [33] = test: as §1; format: ADME, organism-based; settings: in vivo
Rattus norvegicus [34] = test: as §2; format: ADME, organism-based; settings: in vivo

Metabotropic glutamate receptor 3, sequence (Q14832 whole entry): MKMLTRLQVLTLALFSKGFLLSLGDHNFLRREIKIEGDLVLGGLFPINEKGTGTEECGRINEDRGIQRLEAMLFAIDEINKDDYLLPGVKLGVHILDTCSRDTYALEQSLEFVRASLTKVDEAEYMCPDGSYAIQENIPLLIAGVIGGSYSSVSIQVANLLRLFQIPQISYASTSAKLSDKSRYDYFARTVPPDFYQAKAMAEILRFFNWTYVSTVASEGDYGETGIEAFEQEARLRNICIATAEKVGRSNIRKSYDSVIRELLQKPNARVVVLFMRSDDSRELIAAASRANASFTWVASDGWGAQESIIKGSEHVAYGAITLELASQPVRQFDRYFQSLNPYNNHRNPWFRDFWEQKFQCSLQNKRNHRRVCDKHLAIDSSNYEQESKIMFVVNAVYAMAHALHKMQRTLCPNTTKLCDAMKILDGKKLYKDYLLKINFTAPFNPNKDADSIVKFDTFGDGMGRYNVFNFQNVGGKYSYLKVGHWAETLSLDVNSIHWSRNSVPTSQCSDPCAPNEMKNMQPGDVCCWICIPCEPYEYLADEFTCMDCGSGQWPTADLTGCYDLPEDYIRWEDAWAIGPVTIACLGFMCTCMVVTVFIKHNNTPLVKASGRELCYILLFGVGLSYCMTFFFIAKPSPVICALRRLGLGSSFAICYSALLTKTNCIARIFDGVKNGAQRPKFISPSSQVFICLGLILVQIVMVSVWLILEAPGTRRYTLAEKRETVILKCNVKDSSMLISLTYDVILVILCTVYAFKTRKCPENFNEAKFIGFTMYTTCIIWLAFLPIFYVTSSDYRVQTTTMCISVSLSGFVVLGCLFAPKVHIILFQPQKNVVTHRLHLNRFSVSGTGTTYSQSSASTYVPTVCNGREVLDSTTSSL
T2 sequence (P08684 whole entry): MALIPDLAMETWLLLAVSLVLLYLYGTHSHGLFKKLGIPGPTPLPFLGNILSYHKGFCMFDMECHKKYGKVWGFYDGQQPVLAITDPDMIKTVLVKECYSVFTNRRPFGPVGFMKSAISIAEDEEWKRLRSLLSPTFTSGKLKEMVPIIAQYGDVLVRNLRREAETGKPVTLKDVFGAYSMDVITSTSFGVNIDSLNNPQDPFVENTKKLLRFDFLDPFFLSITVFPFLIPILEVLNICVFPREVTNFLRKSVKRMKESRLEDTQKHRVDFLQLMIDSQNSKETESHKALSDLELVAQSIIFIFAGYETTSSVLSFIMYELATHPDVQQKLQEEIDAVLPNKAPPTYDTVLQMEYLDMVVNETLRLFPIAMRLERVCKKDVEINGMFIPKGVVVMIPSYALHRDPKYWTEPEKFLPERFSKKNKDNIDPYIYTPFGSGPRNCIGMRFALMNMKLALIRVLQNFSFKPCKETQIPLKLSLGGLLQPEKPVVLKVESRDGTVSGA
Metabotropic glutamate receptor 6, sequence (O15303 whole entry): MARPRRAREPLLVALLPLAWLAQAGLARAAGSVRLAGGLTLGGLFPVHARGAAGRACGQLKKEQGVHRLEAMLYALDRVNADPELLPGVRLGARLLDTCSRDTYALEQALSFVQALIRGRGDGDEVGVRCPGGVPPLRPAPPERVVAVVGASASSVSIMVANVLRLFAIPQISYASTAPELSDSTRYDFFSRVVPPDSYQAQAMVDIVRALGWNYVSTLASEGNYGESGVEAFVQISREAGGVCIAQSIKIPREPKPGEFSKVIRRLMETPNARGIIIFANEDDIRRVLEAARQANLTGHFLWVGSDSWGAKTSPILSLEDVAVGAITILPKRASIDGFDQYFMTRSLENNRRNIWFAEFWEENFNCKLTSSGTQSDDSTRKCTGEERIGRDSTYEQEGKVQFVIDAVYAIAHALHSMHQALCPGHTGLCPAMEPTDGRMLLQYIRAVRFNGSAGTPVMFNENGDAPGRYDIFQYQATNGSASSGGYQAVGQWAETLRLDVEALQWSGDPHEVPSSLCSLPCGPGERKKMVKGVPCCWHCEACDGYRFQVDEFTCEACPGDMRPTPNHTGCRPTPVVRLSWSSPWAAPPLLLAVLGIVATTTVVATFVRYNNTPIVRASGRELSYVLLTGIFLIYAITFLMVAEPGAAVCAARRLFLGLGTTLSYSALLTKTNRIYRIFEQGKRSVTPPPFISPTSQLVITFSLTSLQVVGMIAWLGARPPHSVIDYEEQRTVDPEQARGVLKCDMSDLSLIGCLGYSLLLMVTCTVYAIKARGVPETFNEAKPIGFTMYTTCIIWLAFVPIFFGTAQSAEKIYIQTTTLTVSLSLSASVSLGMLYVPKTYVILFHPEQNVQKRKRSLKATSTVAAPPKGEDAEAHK
Metabotropic glutamate receptor 5, sequence (P41594 whole entry): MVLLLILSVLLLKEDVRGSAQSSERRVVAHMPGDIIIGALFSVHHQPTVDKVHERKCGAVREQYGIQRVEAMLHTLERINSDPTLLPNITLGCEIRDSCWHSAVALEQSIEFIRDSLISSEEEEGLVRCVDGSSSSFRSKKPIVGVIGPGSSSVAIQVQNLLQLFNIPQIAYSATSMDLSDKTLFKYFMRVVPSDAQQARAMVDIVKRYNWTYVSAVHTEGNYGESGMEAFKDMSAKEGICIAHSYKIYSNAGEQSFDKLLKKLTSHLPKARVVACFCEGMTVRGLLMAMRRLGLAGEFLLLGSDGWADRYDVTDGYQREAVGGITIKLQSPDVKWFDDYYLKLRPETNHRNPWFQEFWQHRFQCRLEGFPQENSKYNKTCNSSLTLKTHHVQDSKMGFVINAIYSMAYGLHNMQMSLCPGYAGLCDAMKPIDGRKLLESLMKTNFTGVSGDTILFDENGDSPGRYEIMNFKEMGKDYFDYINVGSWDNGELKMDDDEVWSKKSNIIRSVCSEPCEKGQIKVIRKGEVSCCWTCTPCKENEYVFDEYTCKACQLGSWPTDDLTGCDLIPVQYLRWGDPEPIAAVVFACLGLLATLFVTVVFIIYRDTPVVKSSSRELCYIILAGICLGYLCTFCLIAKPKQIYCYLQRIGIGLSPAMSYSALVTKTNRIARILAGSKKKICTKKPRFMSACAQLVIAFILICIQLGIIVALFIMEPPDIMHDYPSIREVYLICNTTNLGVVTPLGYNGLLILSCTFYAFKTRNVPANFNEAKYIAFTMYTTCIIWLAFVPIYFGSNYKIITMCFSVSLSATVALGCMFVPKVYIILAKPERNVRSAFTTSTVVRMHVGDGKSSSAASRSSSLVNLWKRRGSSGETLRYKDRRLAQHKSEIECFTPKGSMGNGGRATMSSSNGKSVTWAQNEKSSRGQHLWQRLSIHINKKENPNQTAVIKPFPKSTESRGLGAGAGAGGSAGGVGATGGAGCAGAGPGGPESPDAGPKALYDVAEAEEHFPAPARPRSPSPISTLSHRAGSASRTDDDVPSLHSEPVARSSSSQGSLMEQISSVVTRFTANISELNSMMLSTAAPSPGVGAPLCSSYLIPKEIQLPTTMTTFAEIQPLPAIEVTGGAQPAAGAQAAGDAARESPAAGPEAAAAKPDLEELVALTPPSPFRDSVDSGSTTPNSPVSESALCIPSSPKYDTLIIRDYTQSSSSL
Cytochrome P450 3A4, sequence (P08684 whole entry): as the sequence (P08684 whole entry) above
5-hydroxytryptamine receptor 2A (Homo sapiens), sequence (P28223 whole entry): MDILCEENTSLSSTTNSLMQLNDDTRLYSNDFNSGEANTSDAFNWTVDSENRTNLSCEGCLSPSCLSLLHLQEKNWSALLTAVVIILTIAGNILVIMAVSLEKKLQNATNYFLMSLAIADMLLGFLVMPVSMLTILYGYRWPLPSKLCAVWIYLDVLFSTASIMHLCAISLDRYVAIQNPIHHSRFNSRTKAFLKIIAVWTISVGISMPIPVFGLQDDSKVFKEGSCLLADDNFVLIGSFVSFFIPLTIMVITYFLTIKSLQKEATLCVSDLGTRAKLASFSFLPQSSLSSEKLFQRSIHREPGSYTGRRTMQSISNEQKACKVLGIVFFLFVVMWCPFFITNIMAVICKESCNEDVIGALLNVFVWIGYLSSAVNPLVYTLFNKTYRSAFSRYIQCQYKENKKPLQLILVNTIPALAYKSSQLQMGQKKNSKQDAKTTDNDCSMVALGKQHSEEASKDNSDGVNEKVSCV

%max [1]: 65%
pEC50 [1]: 7.43
solubility [3]: 18 µM (≈ 7.34 µg/mL)
AUC [4]: 3.9 µM·h
Structure (SMILES): Cn1c(=O)n(CC(C)(C)C)c2ccc(N3CC4CCC3CN4c3ncccn3)nc21 (racemic)

fraction unbound [13]: 0.02
%max [1]: 78%
pEC50 [9]: < 4.52
pEC50 [10]: < 4.52
pEC50 [11]: < 4.52
pEC50 [12]: < 4.52
half-life [14]: 16 h
half-life [5]: 10 h
CL free (Rattus norvegicus [7]): 17 mL/min/kg
inhibition at 10 µM (CYP3A4 [2]): 6%
CL free (Canis familiaris): 4.7 mL/min/kg
concentration (Cerebrospinal fluid): 61 nM
fraction unbound [18]: 0.02
Activity [19]: inactive
Activity [20]: inactive
Activity (Homo sapiens): inactive
Structure (SMILES): Cn1c(=O)n(CC(C)(C)C)c2ccc(C3=C[C@@H]4CC[C@H]3CN4C(=O)c3ccon3)nc21
Activity (Rattus norvegicus [15]): Active
Activity (Salmonella typhimurium [16]): Non-toxic
Activity (Salmonella typhimurium [17]): Non-toxic

fraction unbound [13]: 0.08
Activity [21]: Not Active
efflux ratio (P-gp [22]): 1.5
Papp (P-gp [23]): 31 ×10⁻⁶ cm/s
%max [1]: 78%
pEC50 [1]: 7.54
%max [24]: 35%
pEC50 [24]: 6.18
fold change (FC) [25]: 12
pEC50 [9]: < 4.52
pEC50 [10]: < 4.52
pEC50 [11]: < 4.52
pEC50 [12]: < 4.52
solubility [3]: 125 µM (≈ 53.1 µg/mL)
half-life [14]: 12 h
half-life [5]: 2.3 h
clearance [26]: 7 mL/min/kg
clearance [6]: 28 mL/min/kg
CL free (Rattus norvegicus [7]): 4.7 mL/min/kg
AUC [4]: 14 µM·h
AUC [27]: 1.3 µM·h
bioavailability [8]: 72%
bioavailability [28]: 24%
CLint scaled at 10 µM [29]: < 55 mL/min/kg
concentration (Plasma): 3200 nM
kinact (CYP3A4 [31]): 0.00107 s⁻¹
pKi (Cytochrome P450 3A4): 6.27
TDI (Cytochrome P450 3A4; human, microsomes): Active
inhibition at 10 µM (CYP3A4 [2]): 73%
CL free (Canis familiaris): 0.9 mL/min/kg
fraction unbound [18]: 0.06
pEC50 [32]: 7.12
Structure (SMILES): Cn1c(=O)n(CC(C)(C)C)c2ccc(N3C[C@@H]4CC[C@H]3CN4C(=O)c3ccon3)nc21
Activity (Rattus norvegicus [30]): Active
Activity (Rattus norvegicus [15]): Active

Activity [21]: Not Active
efflux ratio (P-gp [22]): 1.1
Papp (P-gp [23]): 30 ×10⁻⁶ cm/s
%max [1]: 72%
pEC50 [1]: 7.54
%max [24]: 49%
pEC50 [24]: 6.20
fold change (FC) [25]: 26
pEC50 [9]: < 4.52
pEC50 [10]: < 4.52
pEC50 [11]: < 4.52
pEC50 [12]: < 4.52
solubility [3]: 116 µM (≈ 51.2 µg/mL)
half-life [14]: 2.5 h
clearance [26]: 14 mL/min/kg
AUC [4]: 13 µM·h
Structure (SMILES): Cn1c(=O)n(CC(C)(C)C)c2ccc(N3C[C@@H]4CC[C@H]3CN4C(=O)c3csnn3)nc21

%max [1]: 74%
pEC50 [1]: 6.94
solubility [3]: 183 µM (≈ 79.5 µg/mL)
half-life [5]: 0.5 h
CL free (Rattus norvegicus [7]): 2.9 mL/min/kg
AUC (Rattus norvegicus [33]): 18 µM·h
F (Rattus norvegicus [34]): 73%
Structure (SMILES): Cn1c(=O)n(CC(C)(C)C)c2ccc(N3CC4CCC3CN4C(=O)c3cccnc3)nc21 (racemic)

Continued, compound first:

Structure (SMILES): Cn1c(=O)n(CC(C)(C)C)c2ccc(C3CCN(C(=O)c4ccon4)CC3)nc21
%max [1]: 79%
pEC50 [1]: 6.27
inhibition at 10 µM (CYP3A4 [2]): 7%

Structure (SMILES): Cn1c(=O)n(CC(C)(C)C)c2ccc(N3CC4CCC3CN4C(=O)c3ccccc3)nc21 (racemic)
%max [1]: 71%
pEC50 [1]: 7.44
solubility [3]: 66 µM (≈ 28.6 µg/mL)
half-life [5]: 1.2 h
clearance [6]: 69 mL/min/kg
CL free (Rattus norvegicus [7]): 35 mL/min/kg
AUC [4]: 2 µM·h
bioavailability [8]: 10%

Structure (SMILES): Cn1c(=O)n(CC(C)(C)C)c2ccc(N3CC4CCC3CN4C(=O)OC(C)(C)C)nc21 (racemic)
%max [1]: 70%
pEC50 [1]: 6.90
pEC50 [9]: < 4.52
pEC50 [10]: < 4.52
pEC50 [11]: < 4.52
pEC50 [12]: < 4.52

Structure (SMILES): Cn1c(=O)n(CC(C)(C)C)c2ccc(N3CCCCC3)nc21
%max [1]: 87%
pEC50 [1]: 6.37
pEC50 [9]: < 4.52
pEC50 [10]: < 4.52
pEC50 [11]: < 4.52
pEC50 [12]: < 4.52

Structure (SMILES): Cn1c(=O)n(CC(C)(C)C)c2ccc(N3CCCC4CCCCC43)nc21 (mixture of isomers)
%max [1]: 77%
pEC50 [1]: 5.66
pEC50 [9]: < 4.52
pEC50 [10]: < 4.52
pEC50 [11]: < 4.52
pEC50 [12]: < 4.52

Structure (SMILES): Cc1cc(CN2CC3CCC2CN3c2ccc3c(n2)n(C)c(=O)n3CC(C)(C)C)no1 (racemic)
%max [1]: 74%
pEC50 [1]: 6.83
solubility [3]: 186 µM (≈ 79 µg/mL)
AUC [4]: 2 µM·h

Structure (SMILES): Cn1c(=O)n(CC(C)(C)C)c2ccc(N3CCCc4ccccc43)nc21
%max [1]: 60%
pEC50 [1]: 6.48
pEC50 [9]: < 4.52
pEC50 [10]: < 4.52
pEC50 [11]: < 4.52
pEC50 [12]: < 4.52

Structure (SMILES): Cn1c(=O)n(CC(C)(C)C)c2ccc(N3CC4CCC3CN4)nc21 (racemic)
%max [1]: 71%
pEC50 [1]: 5.89
pEC50 [9]: < 4.52
pEC50 [10]: < 4.52
pEC50 [11]: < 4.52
pEC50 [12]: < 4.52
